Several values for one entry are separate records, joined by “and”; a condition that tells them apart may be missing. Identical values can stand only once. Toxic doses and inconclusive results are not listed.

This experiment relates to CD2F1 mice, L1210 leukemia ip, survival T/C. In words: NCI In Vivo Anticancer Drug Screen. Data for tumor model L1210 Leukemia (intraperitoneal) in CD2F1 (CDF1) mice. The note with it: higher = longer survival. The procedure, abridged: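 Read-out first: treated-group measurement over vehicle-control measurement, expressed as a ratio. Animals bore a transplanted tumor line and were dosed with compound or vehicle.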

[1] abbreviates: endpoint: mean survival time, dose: 25.0 mg/kg/injection, schedule: Q04DX003 (ip), vehicle: saline with Tween-80.
Setting [2] is: endpoint: mean survival time, dose: 50.0 mg/kg/injection, schedule: Q04DX003 (ip), vehicle: saline with Tween-80.
The mark [3] stands for this setting: endpoint: mean survival time, dose: 100.0 mg/kg/injection, schedule: Q04DX003 (ip), vehicle: saline with Tween-80.
The mark [4] stands for this setting: endpoint: mean survival time, dose: 100.0 mg/kg/injection, schedule: Q01DX001 (ip), vehicle: saline with Tween-80.
[5] abbreviates: endpoint: mean survival time, dose: 1.5 mg/kg/injection, schedule: Q01DX009 (ip), vehicle: saline with Tween-80.
The mark [6] stands for this setting: endpoint: mean survival time, dose: 3.0 mg/kg/injection, schedule: Q01DX009 (ip), vehicle: saline with Tween-80.
Where [7] appears, read: endpoint: mean survival time, dose: 6.0 mg/kg/injection, schedule: Q01DX009 (ip), vehicle: saline with Tween-80.
The mark [8] stands for this setting: endpoint: mean survival time, dose: 50.0 mg/kg/injection, schedule: Q04DX002 (ip), vehicle: saline with Tween-80.
Setting [9] is: endpoint: mean survival time, dose: 200.0 mg/kg/injection, schedule: Q04DX003 (ip), vehicle: saline with Tween-80.
[10] abbreviates: endpoint: mean survival time, dose: 400.0 mg/kg/injection, schedule: Q04DX003 (ip), vehicle: saline with Tween-80.
The mark [11] stands for this setting: endpoint: mean survival time, dose: 100.0 mg/kg/injection, schedule: Q01DX009 (ip), vehicle: Klucel (hydroxypropylcellulose) (HPC).

Turning to `O=C(Nc1ccccc1C(=O)O)c1ccccc1`, the T/C under setting [1] was 106 % of control; the T/C under setting [2] is 101 % of control; the T/C under setting [3] is 98 % of control and 101 % of control.
Turning to `OCC(O)C(O)C(O)C(O)/C=N\Nc1ccccc1` (stereo unspecified), the T/C was 100 % of control under setting [4]; 100 % of control (endpoint: mean survival time, dose: 200.0 mg/kg/injection, schedule: Q01DX001 (ip), vehicle: saline with Tween-80); 95 % of control (endpoint: mean survival time, dose: 400.0 mg/kg/injection, schedule: Q01DX001 (ip), vehicle: saline with Tween-80).
As for `COc1ccc([I+]c2ccc(OC)cc2)cc1`, the T/C under setting [5] was 101 % of control; the T/C under setting [6] was 104 % of control; the T/C under setting [7] was 107 % of control; the T/C (endpoint: mean survival time, dose: 12.5 mg/kg/injection, schedule: Q04DX003 (ip), vehicle: saline with Tween-80) was 97 % of control; the T/C under setting [1] was 93 % of control; the T/C under setting [2] is 93 % of control.
Consider `CC(CC(C)O)=NCCN=C(C)CC(C)O.[Ni]` (stereo unspecified), for which the T/C under setting [5] was 103 % of control; the T/C under setting [6] is 101 % of control; the T/C under setting [7] is 105 % of control; the T/C (endpoint: mean survival time, dose: 12.5 mg/kg/injection, schedule: Q01DX001 (ip), vehicle: saline) is 102 % of control; the T/C (endpoint: mean survival time, dose: 25.0 mg/kg/injection, schedule: Q01DX001 (ip), vehicle: saline) is 112 % of control.
Turning to `CC(C)C(=O)[O][Sn]([CH2]c1ccccc1)([CH2]c1ccccc1)[CH2]c1ccccc1`, the T/C is, setting by setting: (endpoint: mean survival time, dose: 25.0 mg/kg/injection, schedule: Q01DX009 (ip), vehicle: saline with Tween-80) 90 % of control; under setting [1], 95 % of control; (endpoint: mean survival time, dose: 50.0 mg/kg/injection, schedule: Q01DX009 (ip), vehicle: saline with Tween-80) 95 % of control; under setting [2], 90 % of control; under setting [3], 87 % of control.
As for `Cc1cc(F)ccc1NC(=O)Nc1ccc(F)cc1C`, the T/C (endpoint: mean survival time, dose: 25.0 mg/kg/injection, schedule: Q04DX002 (ip), vehicle: saline with Tween-80) is 87 % of control and the T/C under setting [8] was 87 % of control.
Regarding `O=C(O)C(C(=O)O)C1Cc2cccc3cccc1c23` (stereo unspecified), the T/C under setting [4] is 94 % of control.
As to `CC(=O)C(=O)C(C)=O`, the T/C by setting is: under setting [3], 94 % of control; under setting [9], 91 % of control; under setting [10], 105 % of control.
Take `C=C1C(=O)OC2CC1C(OC(=O)/C=C/c1ccccc1)C/C(C)=C/CC/C(C)=C/CCC2(C)O` (stereo unspecified): the T/C (endpoint: mean survival time, dose: 12.5 mg/kg/injection, schedule: Q01DX009 (ip), vehicle: Klucel (hydroxypropylcellulose) (HPC)) is 96 % of control; the T/C (endpoint: mean survival time, dose: 25.0 mg/kg/injection, schedule: Q01DX009 (ip), vehicle: Klucel (hydroxypropylcellulose) (HPC)) is 98 % of control; the T/C (endpoint: mean survival time, dose: 50.0 mg/kg/injection, schedule: Q01DX009 (ip), vehicle: Klucel (hydroxypropylcellulose) (HPC)) was 98 % of control; the T/C under setting [11] was 102 % of control.
For `COc1cc2c3c(c1)-c1c(ccc(OC)c1OC)CC3N(CCN(CCCl)CCCl)CC2` (stereo unspecified), the T/C runs as follows: (endpoint: mean survival time, dose: 6.25 mg/kg/injection, schedule: Q04DX003 (ip), vehicle: saline) 101 % of control; (endpoint: mean survival time, dose: 12.5 mg/kg/injection, schedule: Q04DX003 (ip), vehicle: saline) 98 % of control; (endpoint: mean survival time, dose: 25.0 mg/kg/injection, schedule: Q04DX003 (ip), vehicle: saline) 101 % of control; (endpoint: mean survival time, dose: 50.0 mg/kg/injection, schedule: Q04DX003 (ip), vehicle: saline) 101 % of control; (endpoint: mean survival time, dose: 100.0 mg/kg/injection, schedule: Q04DX003 (ip), vehicle: saline) 87 % of control.
As to `O=C(N/N=C/c1ccccc1)c1ccccc1O`, the T/C is, setting by setting: under setting [11], 96 % of control; (endpoint: mean survival time, dose: 100.0 mg/kg/injection, schedule: Q04DX003 (ip), vehicle: Klucel (hydroxypropylcellulose) (HPC)) 100 % of control; (endpoint: mean survival time, dose: 200.0 mg/kg/injection, schedule: Q01DX009 (ip), vehicle: Klucel (hydroxypropylcellulose) (HPC)) 97 % of control; (endpoint: mean survival time, dose: 200.0 mg/kg/injection, schedule: Q04DX003 (ip), vehicle: Klucel (hydroxypropylcellulose) (HPC)) 94 % of control; (endpoint: mean survival time, dose: 400.0 mg/kg/injection, schedule: Q01DX009 (ip), vehicle: Klucel (hydroxypropylcellulose) (HPC)) 94 % of control; (endpoint: mean survival time, dose: 400.0 mg/kg/injection, schedule: Q04DX003 (ip), vehicle: Klucel (hydroxypropylcellulose) (HPC)) 94 % of control.
In the case of `COc1ccc(OC)c(Cc2cnc3nc(N)nc(N)c3c2C)c1`, the T/C (endpoint: median survival time, dose: 2.5 mg/kg/injection, schedule: Q01DX009 (ip), vehicle: dextrose) is 103 % of control; the T/C (endpoint: median survival time, dose: 5.0 mg/kg/injection, schedule: Q01DX009 (ip), vehicle: dextrose) is 101 % of control and 102 % of control; the T/C (endpoint: median survival time, dose: 6.25 mg/kg/injection, schedule: Q01DX009 (ip), vehicle: water) is 95 % of control; the T/C (endpoint: median survival time, dose: 10.0 mg/kg/injection, schedule: Q01DX009 (ip), vehicle: dextrose) was 101 % of control and 102 % of control; the T/C (endpoint: median survival time, dose: 12.5 mg/kg/injection, schedule: Q01DX009 (ip), vehicle: water) is 98 % of control; the T/C (endpoint: median survival time, dose: 20.0 mg/kg/injection, schedule: Q01DX009 (ip), vehicle: dextrose) was 106 % of control and 112 % of control. Moreover, the T/C (endpoint: median survival time, dose: 25.0 mg/kg/injection, schedule: Q01DX009 (ip), vehicle: water) was 111 % of control; the T/C (endpoint: median survival time, dose: 50.0 mg/kg/injection, schedule: Q01DX009 (ip), vehicle: water) was 151 % of control; the T/C (endpoint: median survival time, dose: 80.0 mg/kg/injection, schedule: Q01DX009 (ip), vehicle: dextrose) is 103 % of control; the T/C (endpoint: median survival time, dose: 100.0 mg/kg/injection, schedule: Q01DX009 (ip), vehicle: water) was 88 % of control.
`Nc1nc2c(ncn2-c2cccc(NC(=O)c3cccc(S(=O)(=O)F)c3)c2)c(=O)[nH]1`: the T/C is 108 % of control under setting [8]; 94 % of control (endpoint: mean survival time, dose: 100.0 mg/kg/injection, schedule: Q04DX002 (ip), vehicle: saline with Tween-80); 90 % of control (endpoint: mean survival time, dose: 200.0 mg/kg/injection, schedule: Q04DX002 (ip), vehicle: saline with Tween-80).
`COC(=O)/C=C/N(Cc1ccccc1)Cc1ccccc1`: the T/C is, setting by setting: under setting [3], 98 % of control; under setting [9], 96 % of control; under setting [10], 94 % of control.
With `COC(=O)c1cccc2c1/C(=N/NC(N)=S)c1ccccc1-2`, the T/C (endpoint: mean survival time, dose: 50.0 mg/kg/injection, schedule: Q01DX001 (ip), vehicle: carboxymethylcellulose (CMC)) was 102 % of control; the T/C (endpoint: mean survival time, dose: 100.0 mg/kg/injection, schedule: Q01DX001 (ip), vehicle: carboxymethylcellulose (CMC)) is 98 % of control; the T/C (endpoint: mean survival time, dose: 200.0 mg/kg/injection, schedule: Q01DX001 (ip), vehicle: carboxymethylcellulose (CMC)) is 102 % of control; the T/C (endpoint: mean survival time, dose: 400.0 mg/kg/injection, schedule: Q01DX001 (ip), vehicle: carboxymethylcellulose (CMC)) is 102 % of control.
Turning to `Cc1ccccc1OP(=O)(c1ccccc1)c1ccccc1`, the T/C is 100 % of control under setting [3], 105 % of control under setting [9] and 110 % of control under setting [10].
On to `O=C(O)C1=CCCc2ccc(Br)cc21`, for which the T/C (endpoint: median survival time, dose: 25.0 mg/kg/injection, schedule: Q04DX003 (ip), vehicle: saline with Tween-80) is 100 % of control; the T/C (endpoint: median survival time, dose: 50.0 mg/kg/injection, schedule: Q04DX003 (ip), vehicle: saline with Tween-80) is 100 % of control; the T/C (endpoint: median survival time, dose: 100.0 mg/kg/injection, schedule: Q04DX003 (ip), vehicle: saline with Tween-80) was 88 % of control; the T/C (endpoint: median survival time, dose: 200.0 mg/kg/injection, schedule: Q04DX003 (ip), vehicle: saline with Tween-80) is 88 % of control.
For the compound `CC(=O)/C=C(\C)OC1CCCCC1`, the T/C is 98 % of control (endpoint: mean survival time, dose: 100.0 mg/kg/injection, schedule: Q01DX009 (ip), vehicle: saline) and 93 % of control (endpoint: mean survival time, dose: 200.0 mg/kg/injection, schedule: Q01DX009 (ip), vehicle: saline).
Consider `O=C(c1ccccc1)c1cc2ccccc2o1`, for which the T/C reads like this: (endpoint: mean survival time, dose: 50.0 mg/kg/injection, schedule: Q01DX009 (ip), vehicle: saline + alcohol) 102 % of control; (endpoint: mean survival time, dose: 100.0 mg/kg/injection, schedule: Q01DX009 (ip), vehicle: saline + alcohol) 105 % of control; (endpoint: mean survival time, dose: 200.0 mg/kg/injection, schedule: Q01DX009 (ip), vehicle: saline + alcohol) 93 % of control.
In the case of `CCOC(=O)C1CC2(CC(C(=O)O)C2)C1` (stereo unspecified), the T/C runs as follows: (endpoint: mean survival time, dose: 100.0 mg/kg/injection, schedule: Q01DX001 (ip), vehicle: saline) 97 % of control; (endpoint: mean survival time, dose: 200.0 mg/kg/injection, schedule: Q01DX001 (ip), vehicle: saline) 93 % of control; (endpoint: mean survival time, dose: 400.0 mg/kg/injection, schedule: Q01DX001 (ip), vehicle: saline) 105 % of control.
As for `O=c1[nH]c(-c2ccccc2)nc(Cc2ccccc2)c1CCO`, the T/C is, setting by setting: under setting [3], 89 % of control; under setting [9], 89 % of control; under setting [10], 91 % of control.

Source of the values: PubChem BioAssay AID256 (DTP/NCI, 2004).
